Laboratory results published in ChEMBL document CHEMBL3351292, “Structure-Based Design and Synthesis of Potent Cyclic Peptides Inhibiting the YAP-TEAD Protein-Protein Interaction” (ACS Med Chem Lett, 2014).
Where a SMILES comes first, the peptide text is derived from it. Bridges are numbered along the chain shown (N, C = ends). [ ]: non-standard residue; d: D form. hCys = N[C@@H](CCS)C(=O)O; Nle = CCCC[C@H](N)C(=O)O

Assays:
[1] = biological target: T1, Transcriptional coactivator YAP1/Transcriptional enhancer factor TEF-1 (Homo sapiens, UniProt P28347); test: Inhibition of YAP/ GST-TEAD1 (unknown origin) interaction by surface plasmon resonance assay; type: protein assay
T1 sequence (P46937 whole entry): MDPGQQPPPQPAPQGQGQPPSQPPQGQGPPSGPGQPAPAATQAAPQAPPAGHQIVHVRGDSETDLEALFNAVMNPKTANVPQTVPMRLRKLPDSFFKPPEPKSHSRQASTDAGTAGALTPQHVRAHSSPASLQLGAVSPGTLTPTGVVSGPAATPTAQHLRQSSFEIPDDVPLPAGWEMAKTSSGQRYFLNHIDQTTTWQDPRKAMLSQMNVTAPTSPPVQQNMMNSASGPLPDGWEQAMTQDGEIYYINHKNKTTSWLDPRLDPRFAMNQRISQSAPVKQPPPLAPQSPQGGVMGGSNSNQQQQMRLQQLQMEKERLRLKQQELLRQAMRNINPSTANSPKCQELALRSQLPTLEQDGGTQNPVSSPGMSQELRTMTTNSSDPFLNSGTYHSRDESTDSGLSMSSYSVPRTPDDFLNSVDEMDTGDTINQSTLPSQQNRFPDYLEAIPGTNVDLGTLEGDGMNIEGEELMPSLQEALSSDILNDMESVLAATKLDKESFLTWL
T1 sequence (P28347 whole entry): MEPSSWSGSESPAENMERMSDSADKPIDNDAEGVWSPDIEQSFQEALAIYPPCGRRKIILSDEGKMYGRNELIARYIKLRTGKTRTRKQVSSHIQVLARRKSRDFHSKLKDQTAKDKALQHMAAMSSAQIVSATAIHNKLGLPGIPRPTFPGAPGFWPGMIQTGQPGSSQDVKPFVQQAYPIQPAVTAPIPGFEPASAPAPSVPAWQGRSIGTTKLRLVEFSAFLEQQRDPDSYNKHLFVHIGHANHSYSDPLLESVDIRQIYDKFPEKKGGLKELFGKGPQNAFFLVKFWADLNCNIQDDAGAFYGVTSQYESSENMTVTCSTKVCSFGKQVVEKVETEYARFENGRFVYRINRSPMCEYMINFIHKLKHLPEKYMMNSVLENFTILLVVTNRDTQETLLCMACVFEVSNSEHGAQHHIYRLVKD

[2] = biological target: T1, Transcriptional coactivator YAP1/Transcriptional enhancer factor TEF-1; test: Inhibition of YAP/ GST-TEAD1 interaction in human Bel-7404 cells […]; type: cell-based, Bel7404
[3] = biological target: Transcriptional coactivator YAP1/Transcriptional enhancer factor TEF-1 (Homo sapiens) (UniProt P46937+P28347); test: Inhibition of YAP/ GST-TEAD1 (unknown origin) interaction at 50 uM by surface plasmon resonance assay; type: protein assay
Sequence of Transcriptional coactivator YAP1/Transcriptional enhancer factor TEF-1 (Homo sapiens) (P28347 whole entry, looked up): as the sequence (P28347 whole entry) above
Sequence of Transcriptional coactivator YAP1/Transcriptional enhancer factor TEF-1 (Homo sapiens) (P46937 whole entry, looked up): as the sequence (P46937 whole entry) above

Work on CSCC[C@H](NC(=O)[C@@H]1CCCN1C(=O)[C@@H](NC(C)=O)C(C)C)C(=O)N[C@H]1CCSSC[C@@H](C(=O)N[C@@H](CCCCN)C(=O)N2CCC[C@H]2C(=O)N2CCC[C@H]2C(=O)N[C@@H](CCC(=O)O)C(N)=O)NC(=O)[C@H](Cc2ccccc2)NC(=O)[C@H](CO)NC(=O)[C@H](CC(=O)O)NC(=O)[C@@H]2CCCN2C(=O)[C@H](CC(C)C)NC(=O)[C@H](CCCCN)NC(=O)[C@H](CCCNC(=N)N)NC(=O)[C@H](CC(C)C)NC1=O yielded an IC50 [1] of 6.9 µM.

CSCC[C@H](NC(=O)[C@@H]1CCCN1C(=O)[C@@H](NC(C)=O)C(C)C)C(=O)N[C@H]1CCSSC[C@@H](C(=O)N[C@@H](CCCCN)C(=O)N2CCC[C@H]2C(=O)N2CCC[C@H]2C(=O)N[C@@H](CCC(=O)O)C(N)=O)NC(=O)[C@H](Cc2ccccc2)NC(=O)[C@H](CO)NC(=O)[C@H](C)NC(=O)[C@@H]2CCCN2C(=O)[C@H](CC(C)C)NC(=O)[C@H](CCCCN)NC(=O)[C@H](CCCNC(=N)N)NC(=O)[C@H](CC(C)C)NC1=O gave an IC50 [1] of 1.5 µM.

CCCC[C@@H]1NC(=O)[C@H](CCCCN)NC(=O)[C@H](CCCNC(=N)N)NC(=O)[C@H](CC(C)C)NC(=O)[C@@H](NC(=O)[C@H](CCSC)NC(=O)[C@@H]2CCCN2C(=O)[C@@H](NC(C)=O)C(C)C)CCSSC[C@@H](C(=O)N[C@@H](CCCCN)C(=O)N2CCC[C@H]2C(=O)N2CCC[C@H]2C(=O)N[C@@H](CCC(=O)O)C(N)=O)NC(=O)[C@H](Cc2ccccc2)NC(=O)[C@H](CO)NC(=O)[C@H](C)NC(=O)[C@@H]2CCCN2C1=O gave an IC50 [1] of 0.15 µM and a Kd [2] of 0.039 µM.

CCCCC[C@@H]1NC(=O)[C@H](CCCCN)NC(=O)[C@H](CCCNC(=N)N)NC(=O)[C@H](CC(C)C)NC(=O)[C@@H](NC(=O)[C@H](CCSC)NC(=O)[C@@H]2CCCN2C(=O)[C@@H](NC(C)=O)C(C)C)CCSSC[C@@H](C(=O)N[C@@H](CCCCN)C(=O)N2CCC[C@H]2C(=O)N2CCC[C@H]2C(=O)N[C@@H](CCC(=O)O)C(N)=O)NC(=O)[C@H](Cc2ccccc2)NC(=O)[C@H](CO)NC(=O)[C@H](C)NC(=O)[C@@H]2CCCN2C1=O gave an IC50 [1] of 0.042 µM and a Kd [2] of 0.018 µM.

CCCC[C@@H]1NC(=O)[C@H](CCCCN)NC(=O)[C@H](CCCNC(=N)N)NC(=O)[C@H](CC(C)C)NC(=O)[C@@H](NC(=O)[C@H](Cc2cccc(Cl)c2)NC(=O)[C@@H]2CCCN2C(=O)[C@@H](NC(C)=O)C(C)C)CCSSC[C@@H](C(=O)N[C@@H](CCCCN)C(=O)N2CCC[C@H]2C(=O)N2CCC[C@H]2C(=O)N[C@@H](CCC(=O)O)C(N)=O)NC(=O)[C@H](Cc2ccccc2)NC(=O)[C@H](CO)NC(=O)[C@H](C)NC(=O)[C@@H]2CCCN2C1=O gave an IC50 [1] of 0.025 µM and a Kd [2] of 0.015 µM.

For CSCC[C@H](NC(=O)[C@@H]1CCCN1C(=O)[C@@H](NC(=O)[C@@H](NC(=O)[C@H](CCC(N)=O)NC(=O)[C@@H]1CCCN1C(C)=O)[C@@H](C)O)C(C)C)C(=O)N[C@@H](CCCNC(=N)N)C(=O)N[C@@H](CC(C)C)C(=O)N[C@@H](CCCNC(=N)N)C(=O)N[C@@H](CCCCN)C(=O)N[C@@H](CC(C)C)C(=O)N1CCC[C@H]1C(=O)N[C@@H](C)C(=O)N[C@@H](CO)C(=O)N[C@@H](Cc1ccccc1)C(=O)N[C@@H](Cc1ccccc1)C(=O)N[C@@H](CCCCN)C(=O)N1CCC[C@H]1C(=O)N1CCC[C@H]1C(=O)N[C@@H](CCC(=O)O)C(N)=O (Ac-PQTVPMRLRKLPASFFKPPE-NH2), the IC50 [1] was 25 µM and the inhibition [3] was 83%.

Molecule CSCC[C@H](NC(=O)[C@@H]1CCCN1C(=O)[C@@H](NC(=O)[C@@H](NC(=O)[C@H](CCC(N)=O)NC(=O)[C@@H]1CCCN1C(C)=O)[C@@H](C)O)C(C)C)C(=O)N[C@@H](CCCNC(=N)N)C(=O)N[C@@H](CC(C)C)C(=O)N[C@@H](CCCNC(=N)N)C(=O)N[C@@H](CCCCN)C(=O)N[C@@H](CC(C)C)C(=O)N1CCC[C@H]1C(=O)N[C@@H](CC(=O)O)C(=O)N[C@@H](CO)C(=O)N[C@@H](Cc1ccccc1)C(=O)N[C@@H](Cc1ccccc1)C(=O)N[C@@H](CCCCN)C(=O)N1CCC[C@H]1C(=O)N1CCC[C@H]1C(=O)N[C@@H](C)C(N)=O (Ac-PQTVPMRLRKLPDSFFKPPA-NH2) has an IC50 [1] of 43 µM and an inhibition [3] of 71%.

With CSCC[C@H](NC(=O)[C@@H]1CCCN1C(=O)[C@@H](NC(C)=O)C(C)C)C(=O)N[C@H]1CSSC[C@@H](C(=O)N[C@@H](CCCCN)C(=O)N2CCC[C@H]2C(=O)N2CCC[C@H]2C(=O)N[C@@H](CCC(=O)O)C(N)=O)NC(=O)[C@H](Cc2ccccc2)NC(=O)[C@H](CO)NC(=O)[C@H](CC(=O)O)NC(=O)[C@@H]2CCCN2C(=O)[C@H](CC(C)C)NC(=O)[C@H](CCCCN)NC(=O)[C@H](CCCNC(=N)N)NC(=O)[C@H](CC(C)C)NC1=O (Ac-VPMCLRKLPDSFCKPPE-NH2; disulfide 4-13) the IC50 [1] was > 100 µM.

Molecule CSCC[C@H](NC(=O)[C@@H]1CCCN1C(=O)[C@@H](NC(C)=O)C(C)C)C(=O)N[C@H]1CSSCC[C@@H](C(=O)N[C@@H](CCCCN)C(=O)N2CCC[C@H]2C(=O)N2CCC[C@H]2C(=O)N[C@@H](CCC(=O)O)C(N)=O)NC(=O)[C@H](Cc2ccccc2)NC(=O)[C@H](CO)NC(=O)[C@H](CC(=O)O)NC(=O)[C@@H]2CCCN2C(=O)[C@H](CC(C)C)NC(=O)[C@H](CCCCN)NC(=O)[C@H](CCCNC(=N)N)NC(=O)[C@H](CC(C)C)NC1=O (Ac-VPMCLRKLPDSF[hCys]KPPE-NH2; disulfide 4-13) has an IC50 [1] of 85 µM.

CSCC[C@H](NC(=O)[C@@H]1CCCN1C(=O)[C@@H](NC(C)=O)C(C)C)C(=O)N[C@H]1CCSSCC[C@@H](C(=O)N[C@@H](CCCCN)C(=O)N2CCC[C@H]2C(=O)N2CCC[C@H]2C(=O)N[C@@H](CCC(=O)O)C(N)=O)NC(=O)[C@H](Cc2ccccc2)NC(=O)[C@H](CO)NC(=O)[C@H](CC(=O)O)NC(=O)[C@@H]2CCCN2C(=O)[C@H](CC(C)C)NC(=O)[C@H](CCCCN)NC(=O)[C@H](CCCNC(=N)N)NC(=O)[C@H](CC(C)C)NC1=O (Ac-VPM[hCys]LRKLPDSF[hCys]KPPE-NH2; disulfide 4-13) was tested, and the IC50 [1] was > 100 µM.

CCCC[C@@H]1NC(=O)[C@H](CCCCN)NC(=O)[C@H](CCCNC(=N)N)NC(=O)[C@H](CC(C)C)NC(=O)[C@@H](NC(=O)[C@H](CCSC)NC(=O)[C@@H]2CCCN2C(=O)[C@@H](NC(C)=O)C(C)C)CCSSC[C@@H](C(=O)N[C@@H](CCCCN)C(=O)N2CCC[C@H]2C(=O)N2CCC[C@H]2C(=O)N[C@@H](CCC(=O)O)C(N)=O)NC(=O)[C@H](Cc2ccccc2)NC(=O)[C@H](CO)NC(=O)[C@H](CC(=O)O)NC(=O)[C@@H]2CCCN2C1=O (Ac-VPM[hCys]LRK[Nle]PDSFCKPPE-NH2; disulfide 4-13) showed an IC50 [1] of 1.7 µM and a Kd [2] of 0.211 µM.
